For orientation: EC50 means the midpoint of the concentration-response curve. As usually defined, the IC50 is the concentration needed to halve the response being measured. By AC50 is commonly meant the concentration giving half of the maximal activity seen.

Assay [1] in a line: cells. Type of assay: functional, cell-based.
A short description of assay [2]: cells. Type of assay: functional, cell-based. This is another data set of the same source.
A short description of assay [3]: microbe, parasite or virus in culture. Type of assay: functional. To be noted: Mycobacterium tuberculosis.
Assay [4] is described as follows: HEK-293T viability loss after treatment – luminescence, T-cell screen hits, cytotoxicity control for TCR NF-kB inhibitor project, dose response (AID 489026).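 Also: cells exposed to compound about 14 hours before the viability readout.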 It counts as functional, cell-based.
Assay [5] is described as follows: reduced cellular PGC1a acetyl-lysine signal – cell-based, cherry-picked samples, dose response (AID 720514).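 Also: potency may reflect raised or lowered acetylation signal.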 Type of assay: functional.
A further assay deals with T1, Protein RecA (Mycobacterium tuberculosis, UniProt P9WHJ3).
T1 sequence (P9WHJ3 whole entry): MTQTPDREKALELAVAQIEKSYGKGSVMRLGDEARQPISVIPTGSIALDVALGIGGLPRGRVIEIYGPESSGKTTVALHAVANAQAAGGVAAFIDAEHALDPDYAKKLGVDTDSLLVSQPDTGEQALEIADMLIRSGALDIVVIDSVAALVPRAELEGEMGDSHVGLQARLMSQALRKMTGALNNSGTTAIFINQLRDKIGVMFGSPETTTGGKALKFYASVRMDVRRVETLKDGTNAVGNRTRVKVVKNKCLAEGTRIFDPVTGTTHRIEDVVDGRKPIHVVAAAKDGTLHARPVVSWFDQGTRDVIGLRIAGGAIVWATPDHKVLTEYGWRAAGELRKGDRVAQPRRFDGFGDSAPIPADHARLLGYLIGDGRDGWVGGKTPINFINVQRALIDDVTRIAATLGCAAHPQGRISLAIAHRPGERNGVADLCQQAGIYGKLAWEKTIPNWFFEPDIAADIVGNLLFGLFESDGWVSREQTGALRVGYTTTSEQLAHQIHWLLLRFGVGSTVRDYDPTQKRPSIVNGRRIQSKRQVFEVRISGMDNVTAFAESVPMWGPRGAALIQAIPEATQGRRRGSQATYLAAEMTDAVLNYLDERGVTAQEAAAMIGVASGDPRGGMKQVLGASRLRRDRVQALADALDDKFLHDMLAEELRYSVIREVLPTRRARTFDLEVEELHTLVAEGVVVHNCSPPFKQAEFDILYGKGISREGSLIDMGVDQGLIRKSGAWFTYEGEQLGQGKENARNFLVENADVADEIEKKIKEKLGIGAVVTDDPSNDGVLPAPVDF
As to the kind of experiment: Fluorescence Cell-Free Homogeneous Dose Retest to Identify Inhibitors of RecA-Intein Splicing Activity. [Related pubchem assays (depositor defined):AID2097, AID2223, AID489010, AID492950]. It counts as functional.

For assay [6], the target named is T2, Heat shock factor protein 1 (Mus musculus, UniProt P38532).
T2 sequence (P38532 whole entry): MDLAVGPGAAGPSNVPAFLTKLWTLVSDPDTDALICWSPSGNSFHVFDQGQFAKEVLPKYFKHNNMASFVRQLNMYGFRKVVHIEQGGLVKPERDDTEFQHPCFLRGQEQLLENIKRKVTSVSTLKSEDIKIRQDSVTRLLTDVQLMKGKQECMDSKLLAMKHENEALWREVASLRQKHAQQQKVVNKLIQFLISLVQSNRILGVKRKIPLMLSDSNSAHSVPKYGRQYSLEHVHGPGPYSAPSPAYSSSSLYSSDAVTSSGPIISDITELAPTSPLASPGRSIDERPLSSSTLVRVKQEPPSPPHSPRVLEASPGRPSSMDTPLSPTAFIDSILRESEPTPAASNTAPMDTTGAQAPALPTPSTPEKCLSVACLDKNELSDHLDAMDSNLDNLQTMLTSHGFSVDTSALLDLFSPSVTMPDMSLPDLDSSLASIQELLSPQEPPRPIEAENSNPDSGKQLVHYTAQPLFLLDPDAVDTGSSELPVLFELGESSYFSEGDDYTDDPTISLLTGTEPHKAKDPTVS
As to the kind of experiment: enhancement of HSF1-driven luciferase signal – cell-based, NIH3T3, luminescence, dose retest, confirmation (AID 435004).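 Also: stress induced by proteasome inhibitor MG132 added 30 min after compound; luciferase reporter driven by HSF1 response element in NIH3T3 cells; actives raise luminescence as potentiators of the MG132 stress response.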 It counts as functional.

In assay [7] the target is T3, Replicative DNA helicase DnaB (Mycobacterium tuberculosis, UniProt P9WMR3).
T3 sequence (P9WMR3 whole entry): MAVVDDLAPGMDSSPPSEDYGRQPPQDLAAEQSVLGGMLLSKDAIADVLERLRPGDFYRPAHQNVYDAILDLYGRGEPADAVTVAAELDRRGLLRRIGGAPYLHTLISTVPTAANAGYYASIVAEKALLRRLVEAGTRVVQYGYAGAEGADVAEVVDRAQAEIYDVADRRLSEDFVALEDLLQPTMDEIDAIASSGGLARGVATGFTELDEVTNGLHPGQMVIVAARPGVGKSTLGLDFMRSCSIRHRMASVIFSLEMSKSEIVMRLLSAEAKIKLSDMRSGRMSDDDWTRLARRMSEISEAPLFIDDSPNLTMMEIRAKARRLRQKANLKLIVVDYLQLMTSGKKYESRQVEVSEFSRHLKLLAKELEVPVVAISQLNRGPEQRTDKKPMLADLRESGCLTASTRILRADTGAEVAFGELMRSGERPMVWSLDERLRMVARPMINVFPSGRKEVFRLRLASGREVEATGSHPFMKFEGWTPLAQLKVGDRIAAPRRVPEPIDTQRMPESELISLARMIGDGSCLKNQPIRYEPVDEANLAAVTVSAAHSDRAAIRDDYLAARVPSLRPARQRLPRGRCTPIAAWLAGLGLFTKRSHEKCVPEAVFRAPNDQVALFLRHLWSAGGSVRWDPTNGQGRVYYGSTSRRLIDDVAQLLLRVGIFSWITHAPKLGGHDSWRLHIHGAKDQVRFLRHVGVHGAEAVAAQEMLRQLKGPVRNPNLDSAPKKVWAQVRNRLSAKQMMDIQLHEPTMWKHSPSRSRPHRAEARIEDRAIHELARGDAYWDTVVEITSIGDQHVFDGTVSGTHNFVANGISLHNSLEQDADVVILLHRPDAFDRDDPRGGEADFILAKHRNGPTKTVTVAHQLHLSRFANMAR
Put plainly: DnaB intein splicing inhibitors, dose response, biochemical, cell-free fluorescence (AID 449749). It counts as functional.

The target in assay [8] is T4, Ubiquitin-conjugating enzyme E2 N (Homo sapiens, UniProt P61088).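 Also: Dose-response confirmation in a TR-FRET assay detecting UBC13-driven polyubiquitin chain formation, inhibition measured.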
T4 sequence (P61088 whole entry): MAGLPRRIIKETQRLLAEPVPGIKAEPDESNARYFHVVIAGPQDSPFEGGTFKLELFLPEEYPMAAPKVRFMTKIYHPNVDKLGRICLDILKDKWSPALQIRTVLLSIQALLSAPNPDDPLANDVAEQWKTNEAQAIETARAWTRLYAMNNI
It counts as functional.

Assay [9] has as its target T5, DNA repair protein RAD52 homolog (Homo sapiens, UniProt P43351).
T5 sequence (P43351 whole entry): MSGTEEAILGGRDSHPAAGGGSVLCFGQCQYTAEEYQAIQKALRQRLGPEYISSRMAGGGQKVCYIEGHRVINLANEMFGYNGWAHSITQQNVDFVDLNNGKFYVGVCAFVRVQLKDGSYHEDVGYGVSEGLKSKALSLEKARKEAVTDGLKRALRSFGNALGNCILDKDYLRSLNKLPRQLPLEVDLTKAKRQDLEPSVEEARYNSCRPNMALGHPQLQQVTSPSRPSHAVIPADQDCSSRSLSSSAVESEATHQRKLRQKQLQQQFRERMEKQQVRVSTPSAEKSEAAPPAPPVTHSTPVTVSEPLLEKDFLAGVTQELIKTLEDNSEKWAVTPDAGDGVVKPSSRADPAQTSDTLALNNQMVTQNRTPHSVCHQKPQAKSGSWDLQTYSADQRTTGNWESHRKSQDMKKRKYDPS
Type of assay: functional, biochemical.

The target of assay [10] is T6, High affinity choline transporter 1 (Homo sapiens, UniProt Q9GZV3).
T6 sequence (Q9GZV3 whole entry): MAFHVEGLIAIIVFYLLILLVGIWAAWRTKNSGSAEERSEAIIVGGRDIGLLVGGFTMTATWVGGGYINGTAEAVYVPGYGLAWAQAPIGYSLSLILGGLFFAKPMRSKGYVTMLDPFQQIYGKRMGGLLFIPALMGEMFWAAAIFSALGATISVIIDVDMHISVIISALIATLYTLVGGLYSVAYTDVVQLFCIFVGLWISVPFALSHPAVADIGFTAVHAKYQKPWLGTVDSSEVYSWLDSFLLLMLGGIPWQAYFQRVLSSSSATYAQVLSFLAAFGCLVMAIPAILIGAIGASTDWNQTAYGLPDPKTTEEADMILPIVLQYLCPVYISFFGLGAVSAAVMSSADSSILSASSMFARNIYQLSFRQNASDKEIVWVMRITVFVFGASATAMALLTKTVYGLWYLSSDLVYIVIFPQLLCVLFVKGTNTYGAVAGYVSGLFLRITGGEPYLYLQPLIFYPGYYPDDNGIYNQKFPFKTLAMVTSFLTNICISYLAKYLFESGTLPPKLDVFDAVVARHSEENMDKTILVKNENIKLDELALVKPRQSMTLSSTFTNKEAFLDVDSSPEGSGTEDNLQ
Put plainly: human choline transporter blockers, potency – cell-based, 5-point CRC, membrane potential dye, dose response (AID 504840). Type of assay: functional.

A short description of assay [11]: Trypanosoma cruzi growth suppression in host cells – NIH3T3 host cells, beta-gal luminescence, confirmation (AID 2044).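 Also: intracellular parasites grown in NIH/3T3 mouse fibroblasts as host cells; luminescent beta-galactosidase reporter signal from transgenic T. cruzi replicating inside host cells; inhibitors lower the luminescence signal.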 Type of assay: functional, cell-based.
In assay [12] the target is T7, Histone-lysine N-methyltransferase NSD2 (Homo sapiens, UniProt O96028).
T7 sequence (O96028 whole entry): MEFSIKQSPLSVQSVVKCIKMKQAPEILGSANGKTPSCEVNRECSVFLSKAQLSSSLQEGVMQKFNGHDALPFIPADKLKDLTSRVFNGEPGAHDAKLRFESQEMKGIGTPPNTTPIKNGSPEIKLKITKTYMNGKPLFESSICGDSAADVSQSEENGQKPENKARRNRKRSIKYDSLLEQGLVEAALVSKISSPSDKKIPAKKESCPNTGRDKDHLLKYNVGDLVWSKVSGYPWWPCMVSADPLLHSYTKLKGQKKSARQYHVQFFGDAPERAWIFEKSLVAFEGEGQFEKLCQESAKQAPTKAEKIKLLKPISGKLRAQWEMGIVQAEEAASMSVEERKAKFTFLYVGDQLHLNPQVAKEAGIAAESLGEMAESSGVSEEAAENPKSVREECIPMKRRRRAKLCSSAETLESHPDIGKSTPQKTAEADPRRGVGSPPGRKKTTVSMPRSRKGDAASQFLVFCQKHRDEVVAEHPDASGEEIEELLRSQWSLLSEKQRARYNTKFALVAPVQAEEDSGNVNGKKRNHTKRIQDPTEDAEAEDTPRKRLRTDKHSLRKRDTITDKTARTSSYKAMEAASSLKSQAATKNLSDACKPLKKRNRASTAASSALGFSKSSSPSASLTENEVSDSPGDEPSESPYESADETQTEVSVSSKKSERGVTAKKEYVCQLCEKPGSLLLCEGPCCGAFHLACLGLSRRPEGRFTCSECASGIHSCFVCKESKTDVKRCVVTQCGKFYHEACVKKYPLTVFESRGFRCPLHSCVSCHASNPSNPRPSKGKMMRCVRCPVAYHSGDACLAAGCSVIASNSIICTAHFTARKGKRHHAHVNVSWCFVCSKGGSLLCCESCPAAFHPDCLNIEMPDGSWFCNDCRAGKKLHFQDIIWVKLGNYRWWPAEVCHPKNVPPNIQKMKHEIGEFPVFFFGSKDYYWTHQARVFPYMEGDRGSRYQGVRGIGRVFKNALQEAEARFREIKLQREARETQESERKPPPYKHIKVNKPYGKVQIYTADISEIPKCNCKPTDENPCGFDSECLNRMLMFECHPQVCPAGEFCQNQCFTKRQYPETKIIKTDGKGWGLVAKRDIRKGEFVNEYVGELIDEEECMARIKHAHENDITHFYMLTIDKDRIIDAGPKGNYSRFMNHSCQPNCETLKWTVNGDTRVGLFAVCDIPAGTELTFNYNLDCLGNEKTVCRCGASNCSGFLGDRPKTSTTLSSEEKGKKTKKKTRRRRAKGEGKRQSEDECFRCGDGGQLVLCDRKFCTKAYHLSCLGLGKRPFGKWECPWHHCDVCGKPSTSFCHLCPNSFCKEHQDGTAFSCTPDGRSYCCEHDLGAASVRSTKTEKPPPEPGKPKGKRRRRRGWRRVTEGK
Type of assay: biochemical.

Assay [13] is described as follows: NIH3T3 cell viability loss – ATP luminescence, mouse fibroblasts, counter-screen, dose response (AID 2010).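 Also: cells exposed to compound for about 90 hours before reading.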 Type of assay: functional, cell-based. In general terms: The purpose of a counterscreen is to sort out artefacts and off-target activity.

Calls of active or inactive are those of the source.

For the molecule `CC1CCN(C(=O)CS(=O)(=O)Cc2ccccc2)CC1`, the EC50 in the assay “cells [1]” was > 350 µM (not active); in “cells [2]”, 273 µM (active).
On to `CCOC(=O)c1sc(=S)n(-c2ccccc2)c1C`, for which the EC50 in the assay “cells [1]” and in the assay “cells [2]” was > 350 µM (not active) each time.
Consider `Cc1cc(C)cc(N(CC(=O)Nc2ccccc2C(=O)N2CCOCC2)S(C)(=O)=O)c1`, for which the EC50 in the assay “cells [1]” and in “cells [2]” was > 350 µM (not active) each time.
Take `CCN(CCCNC(=O)CCNC(=O)Cn1ccc2ccccc2c1=O)c1ccccc1`: the EC50 in the assay “cells [1]” and in the assay “cells [2]” was > 350 µM (not active) each time.
For the molecule `CCCSc1nnc(Sc2nnnn2-c2ccccc2)s1`, the CC50 in assay [3] was 6.83 µM (active). In addition, the IC50 in [4] was > 80 µM (inactive). The AC50 in assay [5] was 0.771 µM (active); in assay [7], 12.5 µM (active). Further, the EC50 at Protein RecA was 14.5 µM (active); in [6], 22 µM (active).
Take `O=C(c1ccc(Cl)cc1)C(Cn1cncn1)C(Sc1ccccc1)c1ccccc1` (stereo not given): the AC50 in assay [5] was 13 µM (active).
For `CCN1CCN(CCNC(=O)c2ccc3nc(-c4cccc(C)c4)c(-c4cccc(C)c4)nc3c2)CC1`, the IC50 is > 20 µM (inactive) in assay [8] and 3.76 µM (active) in [10]. In [9], the AC50 is 13.5 µM (active).
Consider `CCN(CC)CCNc1ncnc2c1sc1nc(N3CCCC3)c3c(c12)CC(C)(C)OC3`, for which the results for the EC50 in assay [11] and in assay [13] were 2.86 µM (active) and 10.2 µM (active), respectively. Further, the AC50 in assay [9] is 4.72 µM (active); in [12], 19.7 µM (active).
As for `CCCCCCn1nc(C(=O)Nc2nc3c(s2)CCCC3)c2ccccc2c1=O`, the EC50 is > 350 µM (not active) in “cells [1]” and 115 µM (active) in “cells [2]”.
Consider `C[C@@H]1CN([C@H](C)CO)C(=O)c2cc(C3=CCCCC3)cnc2O[C@@H]1CN(C)Cc1ccccc1`, for which the AC50 in assay [5] was 28 µM (active).

For the origin of these results see ChEMBL document CHEMBL1201862, “PubChem BioAssay data set” (2004).
